Assay results published in ChEMBL document CHEMBL5108024, “New C-6 functionalized quinoline NorA inhibitors strongly synergize with ciprofloxacin against planktonic and biofilm growing resistant Staphylococcus aureus strains” (Eur J Med Chem, 2022).
≈ marks a conversion by molar mass, not a printed value. Where “and” joins values, the source holds several entries; their conditions need not be identical. Equal values may be shown once. Calls of active or inactive are those of the source. The rule behind the calls is not given here.

How the values were obtained:
[1] = system: Staphylococcus aureus; test: Inhibition of EtBr efflux in ciprofloxacin-resistant Staphylococcus aureus 1199B overexpressing norA and harboring A116E grlA mutant assessed as reduction in fluorescence intensity at 50 uM measured for 5 mins by microplate reader analysis relative to control; type: functional
[2] = system: Staphylococcus aureus; test: Antibacterial activity against ciprofloxacin-resistant Staphylococcus aureus 1199B overexpressing norA and harboring A116E grlA mutant assessed as inhibition of bacterial growth by broth microdilution method; type: functional
[3] = system: Staphylococcus aureus; test: Synergistic antibacterial activity against Staphylococcus aureus 1199B overexpressing norA and harboring A116E grlA mutant assessed as four fold minimum potentiating concentration incubated in presence of ciprofloxacin by checkerboard assay; type: functional
[4] = system: Staphylococcus aureus; test: Synergistic antibacterial activity against Staphylococcus aureus 1199B overexpressing norA and harboring A116E grlA mutant assessed as eight fold minimum potentiating concentration incubated in presence of ciprofloxacin by checkerboard assay; type: functional
[5] = system: Staphylococcus aureus; test: Synergistic antibacterial activity against Staphylococcus aureus 1199B overexpressing norA and harboring A116E grlA mutant assessed as fold reduction in ciprofloxacin MIC at 0.2 to 0.39 ug/ml by checkerboard assay; type: functional; conditions: dose 0.2-0.39 µg/ml
[6] = system: Staphylococcus aureus; test: Synergistic antibiofilm activity against Staphylococcus aureus 1199B overexpressing norA and harboring A116E grlA mutant assessed as biofilm eradication by measuring ciprofloxacin MBEC at 3.13 ug/ml incubated for 24 hrs by Calgary biofilm device assay; type: functional; conditions: dose 3.13 µg/ml
[7] = system: Staphylococcus aureus; test: Synergistic antibiofilm activity against wild type Staphylococcus aureus 1199 assessed as biofilm eradication by measuring ciprofloxacin MBEC at 3.13 ug/ml incubated for 24 hrs by Calgary biofilm device assay; type: functional; conditions: dose 3.13 µg/ml
[8] = system: Staphylococcus aureus; test: Synergistic antibiofilm activity against wild type Staphylococcus aureus 1199 assessed as biofilm eradication by measuring fold reduction in ciprofloxacin MBEC at 3.13 ug/ml incubated for 24 hrs by Calgary biofilm device assay; type: functional; conditions: dose 3.13 µg/ml
[9] = system: Staphylococcus aureus; test: Antibacterial activity against ciprofloxacin-susceptible wild type Staphylococcus aureus 1199 assessed as inhibition of bacterial growth by broth microdilution method; type: functional
[10] = system: Staphylococcus aureus; test: Antibacterial activity against Staphylococcus aureus K2378 harbouring norA promoting and coding region assessed as inhibition of bacterial growth by broth microdilution method; type: functional
[11] = system: Staphylococcus aureus; test: Antibacterial activity against norA deleted Staphylococcus aureus K1902 assessed as inhibition of bacterial growth by broth microdilution method; type: functional
[12] = system: Staphylococcus aureus; test: Antibiofilm activity against Staphylococcus aureus 1199B overexpressing norA and harboring A116E grlA mutant assessed as biofilm eradication incubated for 24 hrs by Calgary biofilm device assay; type: functional
[13] = system: Staphylococcus aureus; test: Antibiofilm activity against wild type Staphylococcus aureus 1199 assessed as biofilm eradication incubated for 24 hrs by Calgary biofilm device assay; type: functional
[14] = system: Staphylococcus aureus; test: Antibiofilm activity against norA deleted Staphylococcus aureus K1902 assessed as biofilm eradication incubated for 24 hrs by Calgary biofilm device assay; type: functional
[15] = system: Staphylococcus aureus; test: Inhibition of EtBr efflux in ciprofloxacin-resistant Staphylococcus aureus 1199B overexpressing norA and harboring A116E grlA mutant assessed as reduction in fluorescence intensity at 10 uM measured for 5 mins by microplate reader analysis relative to control; type: functional
[16] = system: Staphylococcus aureus; test: Synergistic antibacterial activity against ciprofloxacin-resistant Staphylococcus aureus 1199B overexpressing norA and harboring A116E grlA mutant assessed as fold reduction in ciprofloxacin MIC at 6.25 uM by broth microdilution method; type: functional
[17] = system: Staphylococcus aureus; test: Synergistic antibacterial activity against Staphylococcus aureus 1199B overexpressing norA and harboring A116E grlA mutant assessed as sixteen fold minimum potentiating concentration incubated in presence of ciprofloxacin by checkerboard assay; type: functional
[18] = system: Staphylococcus aureus; test: Synergistic antibacterial activity against wild type Staphylococcus aureus 1199 assessed as fold reduction in ciprofloxacin MIC at >=3.13 ug/ml by checkerboard assay; type: functional; conditions: dose >= 3.13 µg/ml
[19] = system: Staphylococcus aureus; test: Synergistic bactericidal activity against Staphylococcus aureus 1199B overexpressing norA and harboring A116E grlA mutant assessed as reduction in bacterial count by measuring log reduction in colony forming count per ml at 6.25 ug/ml incubated for 4 hrs in presence of ciprofloxacin at 0.25 to 1 times MIC by time kill assay; type: functional; conditions: dose 6.25 µg/ml
[20] = Cytotoxicity against human THP-1 cells assessed as cell viability at 3.13 ug/ml incubated for 24 hrs by MTT assay relative to control; type: toxicity, cell-based; conditions: at 3.13 µg/mL, read-out: Activity
[21] = Cytotoxicity against human THP-1 cells assessed as cell viability at 12.5 ug/ml incubated for 24 hrs by MTT assay relative to control; type: toxicity, cell-based; conditions: at 12.5 µg/mL, read-out: Activity
[22] = system: Staphylococcus aureus; test: Synergistic antibacterial activity against Staphylococcus aureus K2378 overexpressing norA assessed as fold reduction in ciprofloxacin MIC at 0.2 to 12.5 ug/ml by checkerboard assay; type: functional; conditions: dose 0.2-12.5 µg/ml
[23] = Cytotoxicity against human A549 cells assessed as cell viability at 12.5 ug/ml incubated for 24 hrs by MTT assay relative to control; type: toxicity, cell-based; conditions: at 12.5 µg/mL, read-out: Activity
[24] = Cytotoxicity against human A549 cells assessed as cell viability at 3.13 ug/ml incubated for 24 hrs by MTT assay relative to control; type: toxicity, cell-based; conditions: at 3.13 µg/mL, read-out: Activity
[25] = Cytotoxicity against human THP-1 cells assessed as cell viability incubated for 24 hrs by MTT assay; type: toxicity, cell-based
[26] = system: Staphylococcus aureus; test: Synergistic antibiofilm activity against norA deleted Staphylococcus aureus K1902 assessed as biofilm eradication by measuring ciprofloxacin MBEC at 3.13 ug/ml incubated for 24 hrs by Calgary biofilm device assay; type: functional; conditions: dose 3.13 µg/ml
[27] = system: Staphylococcus aureus; test: Synergistic antibiofilm activity against Staphylococcus aureus 1199B overexpressing norA and harboring A116E grlA mutant assessed as biofilm eradication by measuring fold reduction in ciprofloxacin MBEC at 3.13 ug/ml incubated for 24 hrs by Calgary biofilm device assay; type: functional; conditions: dose 3.13 µg/ml
[28] = system: Staphylococcus aureus; test: Synergistic bactericidal activity against Staphylococcus aureus 1199B overexpressing norA and harboring A116E grlA mutant assessed as reduction in bacterial count at 6.25 ug/ml incubated for 6 hrs in presence of ciprofloxacin at MIC by time kill assay; type: functional, organism-based; conditions: dose 6.25 µg/ml
[29] = system: Staphylococcus aureus; test: Potentiation of ciprofloxacin-induced antibacterial activity against Staphylococcus aureus 1199B overexpressing norA and harboring A116E grlA mutant assessed as post-antibiotic effect by measuring log reduction in colony forming unit per ml at 6.25 ug/ml preincubated for 1 hr followed by compound washout and measured after 5 hrs; type: functional; conditions: dose 6.25 µg/ml
[30] = system: Staphylococcus aureus; test: Potentiation of ciprofloxacin-induced antibacterial activity against Staphylococcus aureus 1199B overexpressing norA and harboring A116E grlA mutant assessed as time for post-antibiotic effect at 6.25 ug/ml preincubated for 1 hr followed by compound washout and measured after 5 hrs; type: functional; conditions: dose 6.25 µg/ml
[31] = Selectivity index, ratio of CC50 for cytotoxicity against human THP-1 cells to MPC for synergistic antibacterial activity against Staphylococcus aureus 1199B overexpressing norA and harboring A116E grlA mutant assessed as four fold minimum potentiating concentration; type: toxicity, cell-based
[32] = system: Staphylococcus aureus; test: Synergistic bactericidal activity against Staphylococcus aureus 1199B overexpressing norA and harboring A116E grlA mutant assessed as reduction in bacterial count by measuring log reduction in colony forming count per ml at 6.25 ug/ml incubated for 6 hrs in presence of ciprofloxacin at 0.25 to 1 times MIC by time kill assay; type: functional; conditions: dose 6.25 µg/ml

SMILES | inhibition [1] | MIC [2] | MPC [3] | MPC [4] | MBEC [6] | MBEC [7] | fold change (FC) [8] | MIC [9] | MIC [10] | MIC [11] | inhibition [15] | fold change (FC) [16] | log(activity) [19] | viability at 24 h, 3.13 ug/ml [20] | viability at 24 h, 12.5 ug/ml [21] | fold change (FC) [22] | viability at 24 h, 12.5 ug/ml [23] | viability at 24 h, 3.13 ug/ml [24] | CC50 at 24 h [25] | MBEC [26] | other results
CCCOc1ccc(-c2cc(OCCN3CCCCC3)c3cc(OC)ccc3n2)cc1 | 97.6% | 238 µM | 0.78 µg/mL | 1.56 µg/mL | 2.5 µg/mL | 0.07 µg/mL | 286 | – | – | – | – | – | – | – | – | – | – | – | – | – | fold change (FC) [5]: 2
O=C(O)c1cn(C2CC2)c2cc(N3CCNCC3)c(F)cc2c1=O [CIPROFLOXACIN] | – | 10 µg/mL | – | – | – | – | – | 0.08 µg/mL (≈ 0.241 µM) | 0.63 µg/mL (≈ 1.9 µM) | 0.15 µg/mL (≈ 0.453 µM) | – | – | – | – | – | – | – | – | – | – | MBEC [12]: 640 µg/mL; MBEC [13]: 20 µg/mL; MBEC [14]: 40 µg/mL
CCCOc1ccc(-c2cc(OCCN3CCCCC3)c3cc(Nc4ccccc4)ccc3n2)cc1 | 84.2% | > 50 µg/mL and > 519 µM | 0.39 µg/mL | – | – | – | – | > 50 µg/mL | – | – | 50.1% | 8 | – | – | – | – | – | – | – | – | MPC [17]: 0.78 µg/mL; fold change (FC) [18]: 4
CCCOc1ccc(-c2cc(OCCN3CCCCC3)c3cc(OC(F)F)ccc3n2)cc1 | 80.2% | > 50 µg/mL and > 548 µM | 0.39 µg/mL | 0.78 µg/mL | 0.63 µg/mL | 0.07 µg/mL | 286 | > 50 µg/mL | 25 µg/mL (≈ 54.8 µM) | 25 µg/mL (≈ 54.8 µM) | 85% | >=8 | 3 | 67.7% | 9.4% | 4 | 100% | 100% | > 3.13 µg/mL | 40 µg/mL | fold change (FC) [27]: 512; Activity [28]: Active; log(activity) [29]: 1; Time [30]: 1.2 h
CCCOc1ccc(-c2cc(OCCN3CCCCCC3)c3cc(OCCC)ccc3n2)cc1 | 82.3% | > 50 µg/mL and > 540 µM | 0.2 µg/mL | – | 2.5 µg/mL | 0.07 µg/mL | – | > 50 µg/mL | > 50 µg/mL | > 50 µg/mL | 78.8% | 8 | – | 70.3% | 38.4% | 4 | 84.5% | 100% | > 3.13 µg/mL | – | selectivity ratio [31]: > 15
CCCOc1ccc(-c2cc(OCCN(CC)CC)c3cc(Oc4ccccc4)ccc3n2)cc1 | 80.9% | > 50 µg/mL and > 531 µM | – | 1.56 µg/mL | 1.25 µg/mL | 0.07 µg/mL | 286 | > 50 µg/mL | 25 µg/mL (≈ 53.1 µM) | 25 µg/mL (≈ 53.1 µM) | 76.1% | >=8 | 3 | 77.3% | 8.2% | 4 | 84.8% | 80.1% | > 3.13 µg/mL | 40 µg/mL | fold change (FC) [27]: 512; log(activity) [32]: 2; log(activity) [29]: 1; Time [30]: 1.2 h
